The compounds below were run against T1, human full-length MKNK1 (Homo sapiens, UniProt Q9BUB5, T385D) (assay: MKNK1 kinase high ATP assay (TR-FRET)). Details: TR-FRET, 2 mM ATP (high ATP), 15 min preincubation with enzyme, 30 min reaction at 22° C.; read-out: MKNK1 IC50.
T1 construct: GST (N); purchased Carna Biosciences 02-145; host or cells: insect cells (baculovirus expression system)
Format: biochemical
Procedure: MKNK1 Kinase High ATP Assay
MKNK1-inhibitory activity at high ATP of compounds of the present invention after their preincubation with MKNK1 was quantified employing the TR-FRET-based MKNK1 high ATP assay as described in the following paragraphs.
As substrate for the kinase reaction the biotinylated peptide biotin-Ahx-[…] (C-terminus in amide form) was used, which can be purchased e.g. from the company Biosyntan (Berlin-Buch, Germany).
For the assay 50 nL of a 100 fold concentrated solution of the test compound in DMSO was pipetted into a black low volume 384 well microtiter plate (Greiner Bio-One, Frickenhausen, Germany), 2 μL of a solution of MKNK1 in aqueous assay buffer [50 mM HEPES pH 7.5, 5 mM MgCl2, 1.0 mM dithiothreitol, 0.005% (v/v) Nonidet-P40 (Sigma)] was added and the mixture was incubated for 15 min at 22° C. to allow pre-binding of the test compounds to the enzyme before the start of the kinase reaction. Then the kinase reaction was started by the addition of 3 μL of a solution of adenosine-tri-phosphate (ATP, 3.3 mM=>final conc. in the 5 μL assay volume is 2 mM) and substrate (0.1 μM=>final conc. in the 5 μL assay volume is 0.06 μM) in assay buffer and the resulting mixture was incubated for a reaction time of 30 min at 22° C. The concentration of MKNK1 was adjusted depending of the activity of the enzyme lot and was chosen appropriate to have the assay in the linear range, typical concentrations were in the range of 0.003 μg/mL. The reaction was stopped by the addition of 5 μL of a solution of TR-FRET detection reagents (5 nM streptavidine-XL665 [Cisbio Bioassays, Codolet, France] and 1 nM anti-ribosomal protein S6 (pSer236)-antibody from Invitrogen [#44921G] and 1 nM LANCE EU-W1024 labeled ProteinG [Perkin-Elmer, product no. AD0071]) in an aqueous EDTA-solution (100 mM EDTA, 0.1% (w/v) bovine serum albumin in 50 mM HEPES pH 7.5).
The resulting mixture was incubated for 1 h at 22° C. to allow the formation of complex between the phosphorylated biotinylated peptide and the detection reagents. Subsequently the amount of phosphorylated substrate was evaluated by measurement of the resonance energy transfer from the Eu-chelate to the streptavidine-XL. Therefore, the fluorescence emissions at 620 nm and 665 nm after excitation at 350 nm were measured in a TR-FRET reader, e.g. a Rubystar (BMG Labtechnologies, Offenburg, Germany) or a Viewlux (Perkin-Elmer). The ratio of the emissions at 665 nm and at 622 nm was taken as the measure for the amount of phosphorylated substrate.

T1 sequence (Q9BUB5 1-424 isoform Q9BUB5-2 T344D): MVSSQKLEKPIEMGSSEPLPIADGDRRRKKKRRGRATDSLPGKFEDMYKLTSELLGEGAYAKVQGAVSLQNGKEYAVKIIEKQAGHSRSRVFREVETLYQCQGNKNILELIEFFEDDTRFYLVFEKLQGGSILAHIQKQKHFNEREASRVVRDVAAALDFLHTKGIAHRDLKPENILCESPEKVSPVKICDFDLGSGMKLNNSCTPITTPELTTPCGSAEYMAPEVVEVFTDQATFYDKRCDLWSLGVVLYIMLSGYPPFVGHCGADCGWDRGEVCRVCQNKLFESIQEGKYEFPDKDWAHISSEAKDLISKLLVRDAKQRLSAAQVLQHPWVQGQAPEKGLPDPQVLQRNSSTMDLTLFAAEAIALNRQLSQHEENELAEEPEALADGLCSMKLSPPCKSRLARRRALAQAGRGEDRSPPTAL

Row | SMILES | IC50 [nM]
1 | Cc1cc(Nc2ncnc3sc4c(c23)CC[C@H](C(=O)N(C)C)C4)c(=O)n2c1C(=O)NC2(C)C [Example 27, (7S)—N,N-Dimethyl-4-[(3,3,8-trimethyl-1,5-dioxo-1,2,3,5-tetrahydroimidazo[1,5-a]pyridin-6-yl)amino]-5,6,7,8-tetrahydro[1]benzothieno[2,3-d]pyrimidine-7-carboxamide] | 2
2 | Cc1cc(Nc2ncnc3sc4c(c23)CC[C@H](C(=O)N2CCC2)C4)c(=O)n2c1C(=O)NC2(C)C [Example 28, 6-{[(7S)-7-(Azetidin-1-ylcarbonyl)-5,6,7,8-tetrahydro[1]benzothieno[2,3-d]pyrimidin-4-yl]amino}-3,3,8-trimethyl-2,3-dihydroimidazo[1,5-a]pyridine-1,5-dione] | 1
3 | Cc1cc(Nc2ncnc3sc4c(c23)CC[C@H](C(=O)N2CC(C#N)C2)C4)c(=O)n2c1C(=O)NC2(C)C [Example 29, 1-({(7S)-4-[(3,3,8-Trimethyl-1,5-dioxo-1,2,3,5-tetrahydroimidazo[1,5-a]pyridin-6-yl)amino]-5,6,7,8-tetrahydro[1]benzothieno[2,3-d]pyrimidin-7-yl}carbonyl)azetidine-3-carbonitrile] | 1
4 | Cc1cc(Nc2ncnc3sc4c(c23)CC[C@H](C(=O)N2CC(N(C)C)C2)C4)c(=O)n2c1C(=O)NC2(C)C [Example 30, 6-{[(7S)-7-{[3-(Dimethylamino)azetidin-1-yl]carbonyl}-5,6,7,8-tetrahydro[1]benzothieno[2,3-d]pyrimidin-4-yl]amino}-3,3,8-trimethyl-2,3-dihydroimidazo[1,5-a]pyridine-1,5-dione] | 1.3
5 | Cc1cc(Nc2ncnc3sc4c(c23)CC[C@H](C(=O)N2CC[C@H](N(C)C)C2)C4)c(=O)n2c1C(=O)NC2(C)C [Example 31, 6-{[(7S)-7-{[(3S)-3-(Dimethylamino)pyrrolidin-1-yl]carbonyl}-5,6,7,8-tetrahydro[1]benzothieno[2,3-d]pyrimidin-4-yl]amino}-3,3,8-trimethyl-2,3-dihydroimidazo[1,5-a]pyridine-1,5-dione] | 0.9
6 | Cc1cc(Nc2ncnc3sc4c(c23)CC[C@H](C(=O)N2C[C@H]3C[C@@H]2CO3)C4)c(=O)n2c1C(=O)NC2(C)C [Example 33, 3,3,8-Trimethyl-6-({(7S)-7-[(1R,4R)-2-oxa-5-azabicyclo[2.2.1]hept-5-ylcarbonyl]-5,6,7,8-tetrahydro[1]benzothieno[2,3-d]pyrimidin-4-yl}amino)-2,3-dihydroimidazo[1,5-a]pyridine-1,5-dione] | 0.8
7 | Cc1cc(Nc2ncnc3sc4c(c23)CC[C@H](C(=O)O)C4)c(=O)n2c1C(=O)NC21CCCC1 [Example 34, (7S)-4-[(8′-Methyl-1′,5′-dioxo-1′,5′-dihydro-2′H-spiro[cyclopentane-1,3′-imidazo[1,5-a]pyridin]-6′-yl)amino]-5,6,7,8-tetrahydro[1]benzothieno[2,3-d]pyrimidine-7-carboxylic acid] | 4.7
8 | Cc1cc(Nc2ncnc3sc4c(c23)CC[C@H](C(=O)N2C[C@H]3C[C@@H]2CO3)C4)c(=O)n2c1C(=O)NC21CCCC1 [Example 36, 8′-Methyl-6′-({(7S)-7-[(1R,4R)-2-oxa-5-azabicyclo[2.2.1]hept-5-ylcarbonyl]-5,6,7,8-tetrahydro[1]benzothieno[2,3-d]pyrimidin-4-yl}amino)-2′H-spiro[cyclopentane-1,3′-imidazo[1,5-a]pyridine]-1′,5′-dione] | 1.3
9 | Cc1cc(Nc2ncnc3sc4c(c23)CC[C@H](C(=O)N(C)C)C4)c(=O)n2c1C(=O)NC21CCCC1 [Example 37, (7S)—N,N-Dimethyl-4-[(8′-methyl-1′,5′-dioxo-1′,5′-dihydro-2′H-spiro[cyclopentane-1,3′-imidazo[1,5-a]pyridin]-6′-yl)amino]-5,6,7,8-tetrahydro[1]benzothieno[2,3-d]pyrimidine-7-carboxamide] | 0.7
10 | Cc1cc(Nc2ncnc3sc4c(c23)CC[C@H](C(=O)N2CCC2)C4)c(=O)n2c1C(=O)NC21CCCC1 [Example 38, 6′-{[(7S)-7-(Azetidin-1-ylcarbonyl)-5,6,7,8-tetrahydro[1]benzothieno[2,3-d]pyrimidin-4-yl]amino}-8′-methyl-2′H-spiro[cyclopentane-1,3′-imidazo[1,5-a]pyridine]-1′,5′-dione] | 3.1

Continued, values first:

Row | IC50 [nM] | SMILES
11 | 0.6 | Cc1cc(Nc2ncnc3sc4c(c23)CC[C@H](C(=O)N(C)C)C4)c(=O)n2c1C(=O)NC21CCC1 [Example 20, (7S)—N,N-Dimethyl-4-[(8′-methyl-1′,5′-dioxo-1′,5′-dihydro-2′H-spiro[cyclobutane-1,3′-imidazo[1,5-a]pyridin]-6′-yl)amino]-5,6,7,8-tetrahydro[1]benzothieno[2,3-d]pyrimidine-7-carboxamide]
12 | 0.6 | Cc1cc(Nc2ncnc3sc4c(c23)CC[C@H](C(=O)N2CCC2)C4)c(=O)n2c1C(=O)NC21CCC1 [Example 21, 6′-{[(7S)-7-(Azetidin-1-ylcarbonyl)-5,6,7,8-tetrahydro[1]benzothieno[2,3-d]pyrimidin-4-yl]amino}-8′-methyl-2′H-spiro[cyclobutane-1,3′-imidazo[1,5-a]pyridine]-1′,5′-dione]
13 | 0.5 | Cc1cc(Nc2ncnc3sc4c(c23)CC[C@H](C(=O)N2CC(C#N)C2)C4)c(=O)n2c1C(=O)NC21CCC1 [Example 22, 1-({(7S)-4-[(8′-Methyl-1′,5′-dioxo-1′,5′-dihydro-2′H-spiro[cyclobutane-1,3′-imidazo[1,5-a]pyridin]-6′-yl)amino]-5,6,7,8-tetrahydro[1]benzothieno[2,3-d]pyrimidin-7-yl}carbonyl)azetidine-3-carbonitrile]
14 | 0.4 | Cc1cc(Nc2ncnc3sc4c(c23)CC[C@H](C(=O)N2CC(N(C)C)C2)C4)c(=O)n2c1C(=O)NC21CCC1 [Example 23, 6′-{[(7S)-7-{[3-(Dimethylamino)azetidin-1-yl]carbonyl}-5,6,7,8-tetrahydro[1]benzothieno[2,3-d]pyrimidin-4-yl]amino}-8′-methyl-2′H-spiro[cyclobutane-1,3′-imidazo[1,5-a]pyridine]-1′,5′-dione]
15 | 0.2 | Cc1cc(Nc2ncnc3sc4c(c23)CC[C@H](C(=O)N2CC[C@H](N(C)C)C2)C4)c(=O)n2c1C(=O)NC21CCC1 [Example 24, 6′-{[(7S)-7-{[(3S)-3-(Dimethylamino)pyrrolidin-1-yl]carbonyl}-5,6,7,8-tetrahydro[1]benzothieno[2,3-d]pyrimidin-4-yl]amino}-8′-methyl-2′H-spiro[cyclobutane-1,3′-imidazo[1,5-a]pyridine]-1′,5′-dione]
16 | 0.4 | Cc1cc(Nc2ncnc3sc4c(c23)CC[C@H](C(=O)N2CCN(C)[C@H](C)C2)C4)c(=O)n2c1C(=O)NC21CCC1 [Example 25, 6′-{[(7S)-7-{[(3R)-3,4-Dimethylpiperazin-1-yl]carbonyl}-5,6,7,8-tetrahydro[1]benzothieno[2,3-d]pyrimidin-4-yl]amino}-8′-methyl-2′H-spiro[cyclobutane-1,3′-imidazo[1,5-a]pyridine]-1′,5′-dione]
17 | 0.7 | Cc1cc(Nc2ncnc3sc4c(c23)CC[C@H](C(=O)N2C[C@H]3C[C@@H]2CO3)C4)c(=O)n2c1C(=O)NC21CCC1 [Example 26, 8′-Methyl-6′-({(7S)-7-[(1R,4R)-2-oxa-5-azabicyclo[2.2.1]hept-5-ylcarbonyl]-5,6,7,8-tetrahydro[1]benzothieno[2,3-d]pyrimidin-4-yl}amino)-2′H-spiro[cyclobutane-1,3′-imidazo[1,5-a]pyridine]-1′,5′-dione]
18 | 0.5 | Cc1cc(Nc2ncnc3sc4c(c23)CC[C@H](C(=O)N2CCN(C)[C@H](C)C2)C4)c(=O)n2c1C(=O)NC2(C)C [Example 32, 6-{[(7S)-7-{[(3R)-3,4-Dimethylpiperazin-1-yl]carbonyl}-5,6,7,8-tetrahydro[1]benzothieno[2,3-d]pyrimidin-4-yl]amino}-3,3,8-trimethyl-2,3-dihydroimidazo[1,5-a]pyridine-1,5-dione]
19 | 0.4 | Cc1cc(Nc2ncnc3sc4c(c23)CC[C@H](C(=O)N2CCN(C)[C@H](C)C2)C4)c(=O)n2c1C(=O)NC21CCCC1 [Example 35, 6′-{[(7S)-7-{[(3R)-3,4-Dimethylpiperazin-1-yl]carbonyl}-5,6,7,8-tetrahydro[1]benzothieno[2,3-d]pyrimidin-4-yl]amino}-8′-methyl-2′H-spiro[cyclopentane-1,3′-imidazo[1,5-a]pyridine]-1′,5′-dione]

From patent publication US20190388425A1, “SUBSTITUTED IMIDAZOPYRIDINPYRIMIDINES” (Bayer Pharma Aktiengesellschaft, priority 2017, published 2019)
